pIC50: −log10 of the molar value.

The test system of this assay is Plasmodium falciparum. Nature of the assay: Antiplasmodial activity against Plasmodium falciparum 3D7 assessed as reduction in parasite viability incubated for 48 hrs by APAD colorimetric test. Type of assay: functional, organism-based. Conditions: 3D7, 48 h.
Take `C[C@H](CCO)CC[C@@H]1[C@@]2(C)CCCC(C)(C)[C@@H]2CC[C@@]1(C)O` [LABDANEDIOL]: the pIC50 is 4.65.
With `C=C[C@](C)(O)CC[C@@H]1[C@@]2(C)CCCC(C)(C)[C@@H]2CC[C@@]1(C)O` [SCLAREOL], the negative-log IC50 (pIC50) is 4.46.
Same read-out and setting: the value for `CC(CCOC=O)CC[C@@H]1[C@@]2(C)CCCC(C)(C)[C@@H]2CC[C@@]1(C)O` (some centres undefined) was 4.14; that for `CC(=O)OC/C=C(\C)CC[C@@H]1[C@@]2(C)CCCC(C)(C)[C@@H]2CC[C@@]1(C)O` was 4.54; that for `CCC(C)CC(=O)OCCC(C)CC[C@@H]1[C@@]2(C)CCCC(C)(C)[C@@H]2CC[C@@]1(C)O` (some centres undefined) was 4.26.
The same measure, in the same setting: the figure for `CC(=O)OCC[C@@H](C)CC[C@@H]1[C@@]2(C)CCCC(C)(C)[C@@H]2CC[C@@]1(C)O` is 4.48; for `C/C(=C\CO)CC[C@@H]1[C@@]2(C)CCCC(C)(C)[C@@H]2CC[C@@]1(C)O` it is 4.44.
`CCC(C)C(=O)OCCC(C)CC[C@@H]1[C@@]2(C)CCCC(C)(C)[C@@H]2CC[C@@]1(C)O` (some centres undefined): the pIC50 was 4.24.
On to `CC(CCOC(=O)CC(C)CC[C@H]1[C@]2(C)CCCC(C)(C)[C@H]2CC[C@]1(C)O)CC[C@@H]1[C@@]2(C)CCCC(C)(C)[C@@H]2CC[C@@]1(C)O` (some centres undefined), for which the IC50 is > 50 µg/mL.

(Values after ChEMBL document CHEMBL4316632, “Antiplasmodial Diterpenoids from Psiadia arguta” (J Nat Prod, 2019).)
